Data reported in patent US20110014164A1, “EFFICIENT INDUCTION OF PLURIPOTENT STEM CELLS USING SMALL MOLECULE COMPOUNDS” (PRESIDENT AND FELLOWS OF HARVARD COLLEGE, priority 2008, published 2011).
Read-outs that look alike come from different tables or passages of the source.

Columns and labels:
[1] = test system: MEFs infected with the four factors (Oct4, Sox2, Klf4 and c-Myc); assay type: cell-based, mouse
Experimental: FIG. 1(a) MEFs infected with the four factors (Oct4, Sox2, Klf4 and c-Myc) were treated with various chemicals for a week, the percentage of Oct4-GFP positive cells induced was measured through FACS analysis, and compared to infected MEFs without treatment or treated with DMSO (the solvent for Dexamethasone, SAHA and TSA). The chemicals used were: 5′-azaC (2 μM), dexamethasone (dex, 1 μM), 5′-azaC (2 μM) together with dexamethasone (1 μM), VPA (2 mM), SAHA (5 μM) and TSA (20 nM). n=4 for each treatment. For all figures in this study, standard deviations are indicated by error bars, and P values by two-tailed student t-test less than 0.05, 0.01 and 0.001 are indicated by one, two and three asterisks respectively.
To quantitate reprogramming efficiency, we established an assay based on Fluorescence-Activated Cell Sorting (FACS) analysis using an Oct4-GFP transgenic reporter, where the expression of the green fluorescent protein (GFP) is controlled by the promoter and enhancers of Oct4, a pluripotent marker gene^14.
MEFs were derived from e13.5 embryos hemizygous for the Oct4-GFP transgenic allele. Embryos were sexed by inspecting gonads for the pattern of Oct4-GFP expression. Gonads and internal organs were removed before processing the embryos for MEF isolation. To generate iPS cells that can be identified in mouse chimeras after blastocyst injection, we derived MEFs from e13.5 embryos that are hemizygous for Oct4-GFP and heterozygous for the Rosa26-lacZ reporter allele. MEFs were grown in DMEM supplemented with 10% FBS, L-glutamine, penicillin/streptoMycin, nonessential amino acids, and sodium pyruvate. MEFs in early passages (up to passage 5) were used for generation of iPS cells.
Moloney-based retroviral vector (pMXs) containing the murine complementary DNAs of Oct4, Sox2, c-Myc, and Klf4 were obtained from Addgene^1. These plasmids were co-transfected into 293T cells with packaging vectors (pUMVC and pCMV-VSVG), and viral supernatants were collected 48 hours post-transfection to infect MEFs. Two to three rounds of infection were performed during a 48 hour period. The first day after viral supernatants were removed was defined as 0 day post-infection. Infected MEFs were subsequently cultured in mouse ES cell media (Knockout DMEM supplemented with 15% Hyclone FBS, L-glutamine, penicillin/streptoMycin, nonessential amino acids, β-mercaptoethanol, and with 1000 U/ml LIF), and treated with small molecules or growth factors for a week starting from 1 or 2 days post-infection. […] All conditions were tested in quadruplicates.

[2] = test system: MEFs infected with the four factors (Oct4, Sox2, Klf4 and c-Myc); assay: cells; assay type: cell-based, mouse; details: 4-factor infected MEFs

Molecule: CC(=O)O/N=C1/C(=C2/C(=O)Nc3cc(Br)ccc32)Nc2ccccc21 [BIO-Acetoxime]
- effect on reprogramming efficiency ([1]; 2 μM, 4-factor infected MEFs): no significant effect

Molecule: COc1cccc(-c2cc(=O)c3ccccc3o2)c1N [PD98059]
- effect on reprogramming efficiency ([2]; 40 μM): no significant effects

Molecule: O=C(CCCCCCC(=O)Nc1ccccc1)NO [SAHA, suberoylanilide hydroxamic acid]
- improvement over the control DMSO treatment ([1]; 5 μM, 4-factor infected MEFs): 10 fold
- percentage of GFP positive cells ([1]; 5 μM, 4-factor infected MEFs): approximately 0.198% (±0.102%)

Molecule: CC(/C=C/C(=O)NO)=C\[C@@H](C)C(=O)c1ccc(N(C)C)cc1 [TSA, trichostatin A]
- percentage of GFP positive cells ([1]; 20 nM, 4-factor infected MEFs): approximately 1.535% (±0.618%)

Molecule: N#CC(=C(/N)Sc1ccccc1N)/C(C#N)=C(\N)Sc1ccccc1N [U0126]
- effect on reprogramming efficiency [1]: no significant effects

Molecule: C[C@@H]1C[C@H]2[C@@H]3CCC4=CC(=O)C=C[C@]4(C)[C@@]3(F)[C@@H](O)C[C@]2(C)[C@@]1(O)C(=O)CO [dexamethasone]
- improvement of the effect of 5′-azaC when used in combination [1]: 2.6 fold
- effect on reprogramming efficiency ([1]; 1 μM alone, 4-factor infected MEFs): no significant effect

Molecule: Wnt3a
- effect on reprogramming efficiency ([2]; 100 ng/ml): no significant effect

B1: BMP4: recombinant human Bmp4 from Roche (protein, UniProt P12644 293-408, looked up)
Bone morphogenetic protein 4: SPKHHSQRARKKNKNCRRHSLYVDFSDVGWNDWIVAPPGYQAFYCHGDCPFPLADHLNSTNHAIVQTLVNSVNSSIPKACCVPTELSAISMLYLDEYDKVVLKNYQEMVVEGCGCR
- effect on reprogramming efficiency ([2]; 100 ng/ml): had no effect
